Test results published in patent US12077503B2, “Substituted cyclic amides and their use as herbicides” (FMC CORPORATION, priority 2015, dated 2024).

Tests used:
Format in all cases: in vivo
[1] = system: giant foxtail (Setaria faberi); test: Test G Pre-Emergence Protocol; settings: Setaria faberi, pre-emergence, 312 h, evaluated after 13 days; for pest or weed control at 15.625 g/ha: 15.625 g ai/ha; for pest or weed control at 15.625 g/ha / pest or weed control at 250 g/ha: read-out: Foxtail, Giant damage rating (100=total damage to plant; 0=no damage to plant); for pest or weed control at 62.5 g/ha: 62.5 g ai/ha, 100=total damage to plant, 0=no damage to plant, read-out: plant damage rating, Foxtail, Giant; for pest or weed control at 250 g/ha: 250 g ai/ha
Description: (§1) Seeds of corn (Zea mays), giant foxtail (Setaria faberi), barnyardgrass (Echinochloa crus-galli), ivy-leaved morning glory (Ipomoea hederacea), redroot pigweed (Amaranthus retroflexus) and velvetleaf (Abutilon theophrasti) were sown in standard soil in pots. After cultivation for one day under controlled conditions in a glasshouse (at 24/16° C., day/night; 14 hours light; 65% humidity), the plants were sprayed with an aqueous spray solution derived from the formulation of the technical active ingredient in acetone/water (50:50) solution containing 0.5% Tween 20 (polyoxyethylene sorbitan monolaurate, CAS RN 9005-64-5) to give a final dose of 15.625, 62.5 or 250 g/ha of test compound.
(§2) The test plants were then grown on under controlled conditions in a glasshouse (at 24/16° C., day/night; 14 hours light; 65% humidity) and watered twice daily. After 13 days the test was evaluated (100=total damage to plant; 0=no damage to plant). A dash (-) means no test result.

[2] = system: velvetleaf (Abutilon theophrasti); test: Test G Pre-Emergence Protocol; settings: Abutilon theophrasti, pre-emergence, 312 h, evaluated after 13 days; for pest or weed control at 15.625 g/ha: 15.625 g ai/ha; for pest or weed control at 15.625 g/ha / pest or weed control at 250 g/ha: read-out: Velvetleaf damage rating (100=total damage to plant; 0=no damage to plant); for pest or weed control at 62.5 g/ha: 62.5 g ai/ha, 100=total damage to plant, 0=no damage to plant, read-out: plant damage rating, Velvetleaf; for pest or weed control at 250 g/ha: 250 g ai/ha
Description: as §1, §2

[3] = system: ivy-leaved morning glory (Ipomoea hederacea); test: Test G Pre-Emergence Protocol; settings: Ipomoea, pre-emergence, 312 h, evaluated after 13 days; for pest or weed control at 15.625 g/ha: 15.625 g ai/ha, read-out: Morning-glory, Ivy-leaved damage rating (100=total damage to plant; 0=no damage to plant); for pest or weed control at 62.5 g/ha: 62.5 g ai/ha, 100=total damage to plant, 0=no damage to plant, read-out: plant damage rating, Morningglory, Ivy-leaved; for pest or weed control at 250 g/ha: 250 g ai/ha, read-out: Morningglory, Ivy-leaved damage rating (100=total damage to plant; 0=no damage to plant)
Description: as §1, §2

[4] = system: barnyardgrass (Echinochloa crus-galli); test: Test G Pre-Emergence Protocol; settings: Echinochloa crus-galli, pre-emergence, 312 h, evaluated after 13 days; for pest or weed control at 15.625 g/ha: 15.625 g ai/ha, read-out: Barnyard grass damage rating (100=total damage to plant; 0=no damage to plant); for pest or weed control at 62.5 g/ha: 62.5 g ai/ha, 100=total damage to plant, 0=no damage to plant, read-out: plant damage rating, Barnyardgrass; for pest or weed control at 250 g/ha: 250 g ai/ha, read-out: Barnyardgrass damage rating (100=total damage to plant; 0=no damage to plant)
Description: as §1, §2

[5] = system: corn (Zea mays); test: Test G Pre-Emergence Protocol; settings: Zea mays, pre-emergence, 312 h, evaluated after 13 days; for plant injury at 15.625 g/ha: 15.625 g ai/ha; for plant injury at 15.625 g/ha / plant injury at 250 g/ha: read-out: Corn damage rating (100=total damage to plant; 0=no damage to plant); for plant injury at 62.5 g/ha: 62.5 g ai/ha, 100=total damage to plant, 0=no damage to plant, read-out: plant damage rating, Corn; for plant injury at 250 g/ha: 250 g ai/ha
Description: as §1, §2

[6] = system: redroot pigweed (Amaranthus retroflexus); test: Test G Pre-Emergence Protocol; settings: Amaranthus retroflexus, pre-emergence, 312 h, evaluated after 13 days; for pest or weed control at 15.625 g/ha: 15.625 g ai/ha; for pest or weed control at 15.625 g/ha / pest or weed control at 250 g/ha: read-out: Pigweed, Redroot damage rating (100=total damage to plant; 0=no damage to plant); for pest or weed control at 62.5 g/ha: 62.5 g ai/ha, 100=total damage to plant, 0=no damage to plant, read-out: plant damage rating, Pigweed, Redroot; for pest or weed control at 250 g/ha: 250 g ai/ha
Description: as §1, §2

[7] = system: giant foxtail (Setaria faberi); test: Test G Post-Emergence Protocol; settings: Setaria faberi, post-emergence, 312 h; for pest or weed control at 15.625 g/ha: 15.625 g ai/ha, evaluated after 13 days (100=total damage to plant; 0=no damage to plant), read-out: Foxtail, Giant damage rating; for pest or weed control at 62.5 g/ha: 62.5 g ai/ha, read-out: Foxtail, Giant damage rating (100=total damage to plant; 0=no damage to plant); for pest or weed control at 62.5 g/ha / pest or weed control at 250 g/ha: evaluated after 13 days; for pest or weed control at 250 g/ha: 250 g ai/ha, read-out: damage to plant, Foxtail, Giant (100=total damage to plant; 0=no damage to plant)
How it was run: (§3)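 Foliar application was made 8 days after sowing, using an aqueous spray of the active in acetone/water (50:50) with 0.5% Tween 20, at doses of 15.625, 62.5 or 250 g/ha. Injury was assessed 13 days later, where 100 meant the plant was fully damaged.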

[8] = system: velvetleaf (Abutilon theophrasti); test: Test G Post-Emergence Protocol; settings: Abutilon theophrasti, post-emergence, 312 h; for pest or weed control at 15.625 g/ha: 15.625 g ai/ha, evaluated after 13 days (100=total damage to plant; 0=no damage to plant), read-out: Velvetleaf damage rating; for pest or weed control at 62.5 g/ha: 62.5 g ai/ha, read-out: Velvetleaf damage rating (100=total damage to plant; 0=no damage to plant); for pest or weed control at 62.5 g/ha / pest or weed control at 250 g/ha: evaluated after 13 days; for pest or weed control at 250 g/ha: 250 g ai/ha, read-out: damage to plant, Velvetleaf (100=total damage to plant; 0=no damage to plant)
How it was run: as §3

[9] = system: ivy-leaved morning glory (Ipomoea hederacea); test: Test G Post-Emergence Protocol; settings: Ipomoea, post-emergence, 312 h; for pest or weed control at 15.625 g/ha: 15.625 g ai/ha, evaluated after 13 days (100=total damage to plant; 0=no damage to plant), read-out: Morningglory, Ivy-leaved damage rating; for pest or weed control at 62.5 g/ha: 62.5 g ai/ha, read-out: Morningglory, Ivy-leaved damage rating (100=total damage to plant; 0=no damage to plant); for pest or weed control at 62.5 g/ha / pest or weed control at 250 g/ha: evaluated after 13 days; for pest or weed control at 250 g/ha: 250 g ai/ha, read-out: damage to plant, Morningglory, Ivy-leaved (100=total damage to plant; 0=no damage to plant)
How it was run: as §3

[10] = system: barnyardgrass (Echinochloa crus-galli); test: Test G Post-Emergence Protocol; settings: Echinochloa crus-galli, post-emergence, 312 h; for pest or weed control at 15.625 g/ha: 15.625 g ai/ha, evaluated after 13 days (100=total damage to plant; 0=no damage to plant), read-out: Barnyardgrass damage rating; for pest or weed control at 62.5 g/ha: 62.5 g ai/ha, read-out: Barnyardgrass damage rating (100=total damage to plant; 0=no damage to plant); for pest or weed control at 62.5 g/ha / pest or weed control at 250 g/ha: evaluated after 13 days; for pest or weed control at 250 g/ha: 250 g ai/ha, read-out: damage to plant, Barnyardgrass (100=total damage to plant; 0=no damage to plant)
How it was run: as §3

[11] = system: corn (Zea mays); test: Test G Post-Emergence Protocol; settings: Zea mays, post-emergence, 312 h; for plant injury at 15.625 g/ha: 15.625 g ai/ha, evaluated after 13 days (100=total damage to plant; 0=no damage to plant), read-out: Corn damage rating; for plant injury at 62.5 g/ha: 62.5 g ai/ha, read-out: Corn damage rating (100=total damage to plant; 0=no damage to plant); for plant injury at 62.5 g/ha / plant injury at 250 g/ha: evaluated after 13 days; for plant injury at 250 g/ha: 250 g ai/ha, read-out: damage to plant, Corn (100=total damage to plant; 0=no damage to plant)
How it was run: as §3

[12] = system: redroot pigweed (Amaranthus retroflexus); test: Test G Post-Emergence Protocol; settings: Amaranthus retroflexus, post-emergence, 312 h; for pest or weed control at 15.625 g/ha: 15.625 g ai/ha, evaluated after 13 days (100=total damage to plant; 0=no damage to plant), read-out: Pigweed, Redroot damage rating; for pest or weed control at 62.5 g/ha: 62.5 g ai/ha, read-out: Pigweed, Redroot damage rating (100=total damage to plant; 0=no damage to plant); for pest or weed control at 62.5 g/ha / pest or weed control at 250 g/ha: evaluated after 13 days; for pest or weed control at 250 g/ha: 250 g ai/ha, read-out: damage to plant, Pigweed, Redroot (100=total damage to plant; 0=no damage to plant)
How it was run: as §3

SMILES | pest or weed control at 15.625 g/ha [1] | pest or weed control at 62.5 g/ha [1] | pest or weed control at 250 g/ha [1] | pest or weed control at 15.625 g/ha [2] | pest or weed control at 62.5 g/ha [2] | pest or weed control at 250 g/ha [2] | pest or weed control at 15.625 g/ha [3] | pest or weed control at 62.5 g/ha [3] | pest or weed control at 250 g/ha [3] | pest or weed control at 15.625 g/ha [4] | pest or weed control at 62.5 g/ha [4] | pest or weed control at 250 g/ha [4] | plant injury at 15.625 g/ha [5] | plant injury at 62.5 g/ha [5] | plant injury at 250 g/ha [5] | pest or weed control at 15.625 g/ha [6] | pest or weed control at 62.5 g/ha [6] | pest or weed control at 250 g/ha [6] | pest or weed control at 15.625 g/ha [7] | pest or weed control at 62.5 g/ha [7] | further results
CN1C[C@@H](c2ccc(C(F)(F)F)cc2)[C@H](C(=O)Nc2ccn[nH]2)C1=O (racemic) [Compound 1573] | 0% | 0% | 0% | 0% | 0% | 0% | 0% | 0% | 0% | 0% | 0% | 0% | 0% | 0% | 0% | 0% | 0% | 0% | 0% | 0% | pest or weed control at 250 g/ha [7]: 0%; pest or weed control at 15.625 g/ha [8]: 0%; pest or weed control at 62.5 g/ha [8]: 0%; pest or weed control at 250 g/ha [8]: 0%; pest or weed control at 15.625 g/ha [9]: 0%; pest or weed control at 62.5 g/ha [9]: 0%; pest or weed control at 250 g/ha [9]: 0%; pest or weed control at 15.625 g/ha [10]: 0%; pest or weed control at 62.5 g/ha [10]: 0%; pest or weed control at 250 g/ha [10]: 0%; plant injury at 15.625 g/ha [11]: 0%; plant injury at 62.5 g/ha [11]: 0%; plant injury at 250 g/ha [11]: 0%; pest or weed control at 15.625 g/ha [12]: 0%; pest or weed control at 62.5 g/ha [12]: 0%; pest or weed control at 250 g/ha [12]: 0%
CN1C[C@@H](c2ccc(C(F)(F)F)cc2)[C@H](C(=O)Nc2ccccc2C#N)C1=O (racemic) [Compound 1599] | 20% | 60% | 80% | 0% | 30% | 20% | 10% | 10% | 10% | 0% | 70% | 70% | 0% | 10% | 40% | 0% | 40% | 70% | 60% | 80% | pest or weed control at 250 g/ha [7]: 80%; pest or weed control at 15.625 g/ha [8]: 0%; pest or weed control at 62.5 g/ha [8]: 30%; pest or weed control at 250 g/ha [8]: 40%; pest or weed control at 15.625 g/ha [9]: 50%; pest or weed control at 62.5 g/ha [9]: 60%; pest or weed control at 250 g/ha [9]: 50%; pest or weed control at 15.625 g/ha [10]: 10%; pest or weed control at 62.5 g/ha [10]: 70%; pest or weed control at 250 g/ha [10]: 70%; plant injury at 15.625 g/ha [11]: 0%; plant injury at 62.5 g/ha [11]: 0%; plant injury at 250 g/ha [11]: 40%; pest or weed control at 15.625 g/ha [12]: 0%; pest or weed control at 62.5 g/ha [12]: 50%; pest or weed control at 250 g/ha [12]: 50%
